Measured values taken from patent publication US20050136491A1, “Method of site specific labeling of proteins and uses therefor” (SmithKline Beecham Corporation, priority 1999, published 2005).
Square brackets hold non-standard residues; d marks the D form. Peptide text beside a SMILES is read from it. * marks the point of attachment. Tyr(3-NO2) = N[C@@H](Cc1ccc(O)c([N+](=O)[O-])c1)C(=O)O; Biotin = O=C1N[C@H]2[C@H](CS[C@H]2CCCCC(=O)*)N1

Tests used:
Factor XIIIa = biological target: T1, Factor XIIIa (Homo sapiens, UniProt P00488); test: Factor XIII(a)-mediated labeling of ACP-Peptide 1 C-terminal fusion (C-tagged ACP); format: biochemical; settings: for incorporation into ACP-Peptide 1 fusion: Mono Q ion exchange, 22 hr
T1 construct: purchased Enzyme Research Laboratories
T1 sequence (P00488 39-732 limits assumed): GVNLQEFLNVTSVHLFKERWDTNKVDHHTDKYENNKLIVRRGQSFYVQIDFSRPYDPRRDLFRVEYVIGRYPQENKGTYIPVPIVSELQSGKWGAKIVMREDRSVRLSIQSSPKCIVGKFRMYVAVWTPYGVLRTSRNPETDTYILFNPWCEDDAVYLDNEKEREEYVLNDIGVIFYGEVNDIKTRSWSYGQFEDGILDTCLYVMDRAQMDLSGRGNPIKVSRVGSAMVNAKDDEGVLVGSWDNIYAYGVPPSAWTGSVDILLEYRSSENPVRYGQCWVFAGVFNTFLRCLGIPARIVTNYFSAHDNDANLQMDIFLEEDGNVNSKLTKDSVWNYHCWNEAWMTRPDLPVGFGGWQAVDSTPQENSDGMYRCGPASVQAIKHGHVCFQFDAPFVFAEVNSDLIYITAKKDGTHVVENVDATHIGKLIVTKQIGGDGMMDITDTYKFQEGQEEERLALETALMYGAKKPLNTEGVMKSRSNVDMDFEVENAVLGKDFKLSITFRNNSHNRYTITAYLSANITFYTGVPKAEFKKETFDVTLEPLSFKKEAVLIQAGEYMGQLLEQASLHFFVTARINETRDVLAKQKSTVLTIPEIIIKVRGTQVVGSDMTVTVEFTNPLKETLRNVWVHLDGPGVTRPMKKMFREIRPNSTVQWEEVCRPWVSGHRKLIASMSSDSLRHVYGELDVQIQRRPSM
Description: A 270 units/ml reaction of Factor XIII was activated by 42 units/ml immobilized thrombin in Buffer 1:40 mM Tris-HCl, pH 8.3, 0.15 M NaCl. Cadaverine derivatives (rhodamine green and biotin) were used at 0.5 mM for each labeling reaction. The labeling reaction also contained 6 mM of DTT and 5 mM CaCl2. 0.5 mg/ml tagged ACP was used in the labeling reactions, against a 0.5 mg/ml native ACP control sample. Incubations were carried out at room temperature. Aliquots were taken from the mixtures at different time points and 50 mM EDTA was used to stop the labeling reaction (Factor XIII being Ca^2+ dependent). NuPAGE Tris-Glycine gels (4-12%) [Novex] were used to analyze the labeling results. The rhodamine green cadaverine labeling gel was observed under UV translumination, while the biotin cadaverine labeled protein was analyzed by Western blotting/streptavidin-HRP detection. […] No label was incorporated into the native ACP control under the conditions described above.
The ACP-peptide 1 C-terminal fusion was labeled with biotin cadaverine (Molecular Probes) in a reaction mixture of 0.5 mg/ml ACP-Peptide 1 fusion, 1.5 mM biotin-cadaverine and 504 units/ml Factor XIIIa. The efficiency of incorporation was determined by competitive ELISA to be 56%.
Novel biotinylation reagents (i.e. labeling compounds) were tested in an attempt to increase the yield. To this end, two biotinylated dipeptides, Biotin-Trp-Lys-OH and Biotin-NitroTyr-Lys-OH, were evaluated in a reaction mixture of 0.5 mg/ml ACP-Peptide 1 fusion, 1.5 mM biotin-cadaverine and 504 units/ml Factor XIIIa. Incorporation of the Biotin-Trp-Lys-OH dipeptide was shown by Mono Q ion exchange to be >85% (FIG. 2), in comparison to a 55% incorporation of the Biotin-NitroTyr-Lys dipeptide (FIG. 1). […] provides the C-tagged ACP standard. The identity of the modified peak was confirmed by addition of unmodified ACP at the end of the reaction (FIG. 4).

Factor XIII = biological target: T2, Factor XIII (Homo sapiens, UniProt P00488); test: Factor XIII-mediated labeling of N-terminal Peptide 1-ACP fusion (N-tagged ACP); format: biochemical; settings: analysed by N-terminal sequencing and mass mapping
T2 construct: purchased Enzyme Research Laboratories
T2 sequence (P00488 39-732 limits assumed): T1 sequence (P00488 39-732 limits assumed)

[1] = 0.5 mg/ml fusion, 504 units/ml Factor XIIIa

NCCCC[C@H](NC(=O)[C@H](Cc1ccc(O)c([N+](=O)[O-])c1)NC(=O)CCCC[C@@H]1SC[C@@H]2NC(=O)N[C@@H]21)C(=O)O [Biotin-NitroTyr-Lys, Biotin-NitroTyr-Lys-OH] (Biotin-[Tyr(3-NO2)]-Lys-OH)
incorporation into ACP-Peptide 1 fusion (Factor XIIIa; [1]): 55%

NCCCC[C@H](NC(=O)[C@H](Cc1c[nH]c2ccccc12)NC(=O)CCCC[C@@H]1SC[C@@H]2NC(=O)N[C@@H]21)C(=O)O [Biotin-Trp-Lys-OH] (Biotin-Trp-Lys-OH)
incorporation into ACP-Peptide 1 fusion (Factor XIIIa; [1]): > 85%

CN(C)c1cccc2c(S(=O)(=O)NCCCCCN)cccc12 [dansyl cadaverine]
labeling efficiency of N-terminal Peptide 1-ACP fusion (Factor XIII): greater than 90%

biotin cadaverine
efficiency of incorporation into ACP-Peptide 1 C-terminal fusion (Factor XIIIa; competitive ELISA, 0.5 mg/ml fusion, 1.5 mM label, 504 units/ml Factor XIIIa): 56%

rhodamine green cadaverine
efficiency of labeling of the ACP-Peptide 1 C-terminal fusion (Factor XIIIa): greater than 90% | extent of labeling of C-tagged ACP (Factor XIIIa; non-optimized reaction, estimated by high-resolution ion exchange): greater than 85%
